Data reported in the supplement of paper PMC11061612.

Experiments:
[1] = tested on: SNU-387 (Hepatocellular Carcinoma); test: Bliss excess, mean over the matrix (fraction); higher = more synergy
Outline: (§1)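 After 24 hours at 37°C and 5% CO2 in 1536-well plates, cells in DMEM/F12 or RPMI plus 10% FBS received two-drug dose matrices for 72 hours. Viability came from CellTiter-Glo 2.0 luminescence and was scaled as inhibition, anchored at 0 by vehicle wells and at 1 by blank wells. Combination Emax is taken as the second-highest inhibition in the matrix, and Bliss excess as the observed combination effect less EA + EB − EA·EB, with EA and EB the single-agent effects.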

[2] = tested on: KMRC-1 (Kidney Carcinoma); test: as above
Outline: as §1

[3] = tested on: KGN (Other Solid Carcinomas); test: as above
Outline: as §1

EW-1 (Ewing's Sarcoma) = test: as above
Outline: as §1

[4] = tested on: HCC1500 (Breast Carcinoma); test: as above
Outline: as §1

[5] = tested on: Mo-T (Other Blood Carcinomas); test: as above
Outline: as §1

[6] = tested on: OE33 (Esophageal Adenocarcinoma); test: as above
Outline: as §1

[7] = tested on: A4-Fuk (B-Lymphoblastic Leukemia); test: as above
Outline: as §1

[8] = tested on: CADO-ES1 (Ewing's Sarcoma); test: as above
Outline: as §1

[9] = tested on: COLO-668 (Small Cell Lung Carcinoma); test: as above
Outline: as §1

[10] = tested on: NCI-H522 (Lung Adenocarcinoma); test: as above
Outline: as §1

Hey (Ovarian Carcinoma) = test: as above
Outline: as §1

[11] = tested on: SKN (Other Solid Carcinomas); test: as above
Outline: as §1

[12] = tested on: NCI-H1355 (Lung Adenocarcinoma); test: as above
Outline: as §1

[13] = tested on: HCC2998 (Colorectal Carcinoma); test: as above
Outline: as §1

SK-N-AS (Neuroblastoma) = test: as above
Outline: as §1

[14] = tested on: KOPN-8 (B-Lymphoblastic Leukemia); test: as above
Outline: as §1

[15] = tested on: NCI-H1993 (Lung Adenocarcinoma); test: as above
Outline: as §1

[16] = tested on: OE33 (Esophageal Adenocarcinoma); test: combination Emax (second highest fraction inhibited in the dose matrix, 72 h); higher = more inhibition; extreme values may be limits of the assay
Outline: as §1

[17] = tested on: NCI-H1355 (Lung Adenocarcinoma); test: as above
Outline: as §1
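Wherever Bliss excess, mean over the matrix is given: after 72 h of two-drug dosing.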

| SMILES | Bliss excess [1] | Bliss excess [2] | Bliss excess [3] | Bliss excess (EW-1 (Ewing's Sarcoma)) | Bliss excess [4] | Bliss excess [5] | Bliss excess [6] | Bliss excess [7] | Bliss excess [8] | Bliss excess [9] | Bliss excess [10] | Bliss excess (Hey (Ovarian Carcinoma)) | Bliss excess [11] | Bliss excess [12] | Bliss excess [13] | Bliss excess (SK-N-AS (Neuroblastoma)) | Bliss excess [14] | Bliss excess [15] | combination Emax [16] | combination Emax [17] |
| --- | --- | --- | --- | --- | --- | --- | --- | --- | --- | --- | --- | --- | --- | --- | --- | --- | --- | --- | --- | --- |
| Cc1c2c(nn1C)CSCc1cc(n(C)n1)CSc1cc(c3ccccc3c1)OCCCc1c(C(=O)O)n(C)c3c-2c(Cl)ccc13 [AZD5991] + C=CCn1c(=O)c2cnc(Nc3ccc(N4CCN(C)CC4)cc3)nc2n1-c1cccc(C(C)(C)O)n1 [AZD1775] (first compound max 1 µM, partner max 1 µM) | -0.0632 | 0.0071 | -0.002 | 0.01 | 0.0305 | 0.0127 | -0.023 | 0.0204 | -0.0308 | -0.0643 | -0.0201 | -0.0325 | -0.0269 | 0.0071 | 0.0142 | -0.066 | -0.0397 | 0.0026 | 0.573 | 0.57 |
| CC1(C)CCC(CN2CCN(c3ccc(C(=O)NS(=O)(=O)c4ccc(NCC5CCOCC5)c([N+](=O)[O-])c4)c(Oc4cnc5[nH]ccc5c4)c3)CC2)=C(c2ccc(Cl)cc2)C1 [Venetoclax] + Cn1cnc2c(F)c(Nc3ccc(Br)cc3Cl)c(C(=O)NOCCO)cc21 [Selumetinib] (first compound max 1 µM, 7x7, partner max 3 µM) | -0.0601 | -0.0344 | -0.0406 | -0.0483 | -0.023 | 0.021 | -0.0192 | 0.0163 | -0.0596 | 0.116 | -0.0215 | -0.0238 | -0.0664 | -0.032 | -0.0065 | 0.0083 | 0.113 | -0.0358 | 0.174 | 0.273 |
| COc1cccc(OCCCN)c1-c1cc(Nc2cnc(C#N)cn2)n[nH]1 [Prexasertib] + CN(C)CCCOc1ccc(-c2ccc3ncc4c(c3c2)n(C2CCOCC2)c(=O)n4C)cn1 [AZD0156] (first compound max 1 µM, 7x7, partner max 1 µM) | -0.0232 | -0.0317 | -0.0432 | -0.0145 | 0.0475 | 0.0105 | -0.0272 | -0.0593 | 0.0008 | -0.0161 | -0.0189 | -0.0098 | 0.0519 | -0.0429 | -0.0121 | -0.0026 | 0.0171 | -0.0768 | 0.826 | 0.709 |
| Cc1c2c(nn1C)CSCc1cc(n(C)n1)CSc1cc(c3ccccc3c1)OCCCc1c(C(=O)O)n(C)c3c-2c(Cl)ccc13 [AZD5991] + C[C@@H]1COCCN1C2=NC(=NC(=C2)C3(CC3)[S@](=N)(=O)C)C4=C5C=CNC5=NC=C4 [AZD6738] (first compound max 1 µM, 7x7, partner max 10 µM) | 0.0408 | 0.0201 | 0.0182 | 0.0344 | 0.105 | 0.0152 | -0.0688 | -0.0297 | 0.0135 | -0.0064 | 0.0595 | 0.012 | -0.0121 | 0.0264 | 0.044 | -0.0034 | -0.0067 | -0.0216 | 0.784 | 0.652 |
| CC1(C)CCC(CN2CCN(c3ccc(C(=O)NS(=O)(=O)c4ccc(NCC5CCOCC5)c([N+](=O)[O-])c4)c(Oc4cnc5[nH]ccc5c4)c3)CC2)=C(c2ccc(Cl)cc2)C1 [Venetoclax] + C1CN(CCC1(C(=O)N[C@@H](CCO)C2=CC=C(C=C2)Cl)N)C3=NC=NC4=C3C=CN4 [Capivasertib] (first compound max 1 µM, 7x7, partner max 3 µM) | -0.0554 | -0.028 | -0.0592 | -0.0019 | 0.0321 | -0.013 | -0.0059 | -0.035 | -0.0206 | 0.0066 | -0.0292 | -0.0504 | -0.0299 | -0.0379 | -0.0133 | -0.0237 | -0.0009 | -0.001 | 0.184 | 0.268 |
| CN(C)CCCOc1ccc(-c2ccc3ncc4c(c3c2)n(C2CCOCC2)c(=O)n4C)cn1 [AZD0156] + CCN(CCO)CCCOc1ccc2c(Nc3cc(CC(=O)Nc4cccc(F)c4)[nH]n3)ncnc2c1 [AZD2811] (first compound max 1 µM, 7x7, partner max 1 µM) | -0.0569 | -0.0251 | -0.0306 | 0.0446 | -0.0563 | -0.0898 | -0.0173 | 0.0911 | 0.0131 | -0.0175 | -0.0201 | 0.0051 | -0.0358 | -0.0599 | 0.0314 | -0.014 | 0.0535 | -0.0335 | 0.068 | 0.216 |
| C[C@@H]1COCCN1c1cc(C2([S@](C)(=N)=O)CC2)nc(-c2ccnc3[nH]ccc23)n1 [AZD6738] + O=C(c1cc(Cc2n[nH]c(=O)c3ccccc23)ccc1F)N1CCN(C(=O)C2CC2)CC1 [Olaparib] (first compound max 10 µM, 7x7, partner max 10 µM) | -0.0225 | 0.0003 | -0.0087 | 0.0174 | 0.0412 | 0.0311 | -0.0384 | -0.0081 | 0.03 | 0.0193 | 0.0229 | 0.0379 | 0.0031 | -0.0357 | 0.0443 | 0.0223 | -0.0358 | 0.033 | 0.721 | 0.712 |
| Cn1cnc2c(F)c(Nc3ccc(Br)cc3Cl)c(C(=O)NOCCO)cc21 [Selumetinib] + CCN(CCO)CCCOc1ccc2c(Nc3cc(CC(=O)Nc4cccc(F)c4)[nH]n3)ncnc2c1 [AZD2811] (first compound max 10 µM, 7x7, partner max 1 µM) | -0.0412 | -0.0101 | -0.0586 | 0.0332 | -0.0123 | -0.0328 | -0.0246 | 0.176 | -0.0515 | -0.0161 | -0.0359 | -0.0165 | -0.068 | 0.0102 | -0.019 | -0.0108 | 0.0253 | 0.0327 | 0.364 | 0.275 |
| C=CCn1c(=O)c2cnc(Nc3ccc(N4CCN(C)CC4)cc3)nc2n1-c1cccc(C(C)(C)O)n1 [AZD1775] + O=C(c1cc(Cc2n[nH]c(=O)c3ccccc23)ccc1F)N1CCN(C(=O)C2CC2)CC1 [Olaparib] (first compound max 1 µM, partner max 10 µM) | -0.075 | -0.0224 | -0.0844 | -0.0235 | 0.0158 | -0.0418 | 0.0117 | -0.0794 | 0.0402 | 0.0104 | 0.0441 | -0.0327 | -0.0048 | -0.0671 | -0.057 | -0.0075 | -0.016 | -0.0631 | 0.507 | 0.614 |
| CC1(C)CCC(CN2CCN(c3ccc(C(=O)NS(=O)(=O)c4ccc(NCC5CCOCC5)c([N+](=O)[O-])c4)c(Oc4cnc5[nH]ccc5c4)c3)CC2)=C(c2ccc(Cl)cc2)C1 [Venetoclax] + CCN(CCO)CCCOc1ccc2c(Nc3cc(CC(=O)Nc4cccc(F)c4)[nH]n3)ncnc2c1 [AZD2811] (first compound max 1 µM, 7x7, partner max 1 µM) | -0.0422 | -0.0456 | -0.038 | 0.0317 | 0.0905 | -0.125 | -0.0188 | 0.0781 | 0.0054 | 0.0051 | 0.0172 | 0.0408 | 0.0005 | -0.0219 | -0.0403 | -0.0071 | 0.0169 | -0.0002 | 0.174 | 0.323 |
| Cc1c2c(nn1C)CSCc1cc(n(C)n1)CSc1cc(c3ccccc3c1)OCCCc1c(C(=O)O)n(C)c3c-2c(Cl)ccc13 [AZD5991] + CCN(CCO)CCCOc1ccc2c(Nc3cc(CC(=O)Nc4cccc(F)c4)[nH]n3)ncnc2c1 [AZD2811] (first compound max 1 µM, 7x7, partner max 1 µM) | -0.0333 | 0.0096 | -0.0067 | 0.0979 | 0.0466 | -0.0109 | -0.002 | 0.0579 | 0.0101 | 0.0172 | 0.111 | 0.0293 | 0.0261 | -0.0466 | 0.0679 | 0.0414 | -0.0289 | -0.0072 | 0.139 | 0.334 |
| CN(C)CCCOc1ccc(-c2ccc3ncc4c(c3c2)n(C2CCOCC2)c(=O)n4C)cn1 [AZD0156] + C=CCn1c(=O)c2cnc(Nc3ccc(N4CCN(C)CC4)cc3)nc2n1-c1cccc(C(C)(C)O)n1 [AZD1775] (first compound max 1 µM, partner max 1 µM) | -0.054 | -0.0216 | -0.0028 | -0.0281 | 0.0408 | -0.0599 | 0.0402 | -0.0274 | 0.0196 | -0.039 | -0.0131 | -0.0242 | -0.0548 | -0.0472 | 0.057 | -0.0492 | -0.0256 | -0.0699 | 0.472 | 0.532 |
